In ChEMBL document CHEMBL1201862, “PubChem BioAssay data set” (2004) one finds AC50, EC50 and CC50 data, which are given here for 39 molecules.

Assay [1] addresses Cytochrome P450 3A4 (Homo sapiens, UniProt P08684).
In assay [2] the target is T1, Heat shock factor protein 1 (Mus musculus, UniProt P38532).
T1 sequence (P38532 whole entry): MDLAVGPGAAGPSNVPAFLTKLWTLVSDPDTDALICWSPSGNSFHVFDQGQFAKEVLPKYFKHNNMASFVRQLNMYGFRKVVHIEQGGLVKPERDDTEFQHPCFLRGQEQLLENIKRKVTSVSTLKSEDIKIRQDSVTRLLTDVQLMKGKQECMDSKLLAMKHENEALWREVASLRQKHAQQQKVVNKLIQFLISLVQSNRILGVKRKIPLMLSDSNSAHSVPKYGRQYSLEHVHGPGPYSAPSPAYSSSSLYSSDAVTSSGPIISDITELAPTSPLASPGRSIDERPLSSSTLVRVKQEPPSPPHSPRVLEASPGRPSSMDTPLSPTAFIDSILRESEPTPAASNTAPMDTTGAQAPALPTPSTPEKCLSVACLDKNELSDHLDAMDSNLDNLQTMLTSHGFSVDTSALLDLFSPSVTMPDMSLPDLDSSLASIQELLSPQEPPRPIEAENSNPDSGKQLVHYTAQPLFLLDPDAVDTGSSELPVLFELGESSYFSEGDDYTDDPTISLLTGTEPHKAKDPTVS
The assay can be described thus: decrease of HSF1-responsive luciferase luminescence – cell-based, NIH3T3, dose retest, confirmation (AID 2382).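 Further: NIH3T3 fibroblasts with HSF1-driven luciferase reporter stressed by proteasome inhibitor MG132; luminescence from HSF1-driven luciferase expression after 8 hours of MG132 stress.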 The assay is classed as functional.

Assay [3] deals with T2, Streptokinase A (Streptococcus pyogenes serotype M1, UniProt P10520).
T2 sequence (P10520 whole entry): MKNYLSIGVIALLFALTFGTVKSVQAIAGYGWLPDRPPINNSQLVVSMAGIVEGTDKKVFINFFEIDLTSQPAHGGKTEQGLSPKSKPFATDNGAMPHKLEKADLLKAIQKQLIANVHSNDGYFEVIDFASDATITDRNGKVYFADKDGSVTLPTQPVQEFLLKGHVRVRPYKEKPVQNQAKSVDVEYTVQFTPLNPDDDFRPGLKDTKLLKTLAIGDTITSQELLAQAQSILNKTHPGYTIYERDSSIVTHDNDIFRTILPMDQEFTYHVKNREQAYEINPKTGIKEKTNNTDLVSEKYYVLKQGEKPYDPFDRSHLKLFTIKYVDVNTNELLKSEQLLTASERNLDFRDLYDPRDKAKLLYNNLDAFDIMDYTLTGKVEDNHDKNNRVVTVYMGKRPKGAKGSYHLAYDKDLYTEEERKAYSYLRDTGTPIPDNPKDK
The assay can be described thus: viability-normalized secreted streptokinase activity reduction – plasminogen activation absorbance, OD405, dose response (AID 1914).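 Further: secreted streptokinase activity via plasminogen activation per viability signal from cell pellet.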 The assay is classed as functional, Streptococcus pyogenes M1 GAS.

Assay [4] relates to Streptococcus. Briefly: GAS UMAA2166 growth inhibition – luminescence, BacTiterGlo, counter-screen for streptokinase expression inhibitor project, dose response (AID 1915).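 Further: potency for reduction of bacterial viability or growth.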 The assay is classed as functional, organism-based.
Assay [5] has as its system Streptococcus sp. 'group A'. The assay can be described thus: Streptococcus pyogenes SK(-)GAS viability under kanamycin – luminescence, BacTiterGlo, confirmation, counter-screen for streptokinase expression inhibitor project, dose response (AID 1900). The assay is classed as functional, organism-based.
In assay [6] the target is Cytochrome P450 2C9 (Homo sapiens, UniProt P11712).
In assay [7] the target is T3, Cytochrome P450 1A2 (Homo sapiens, UniProt P05177).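 Further: PubChem cytochrome P450 panel assay, CYP1A2 panel member.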
T3 sequence (P05177 whole entry): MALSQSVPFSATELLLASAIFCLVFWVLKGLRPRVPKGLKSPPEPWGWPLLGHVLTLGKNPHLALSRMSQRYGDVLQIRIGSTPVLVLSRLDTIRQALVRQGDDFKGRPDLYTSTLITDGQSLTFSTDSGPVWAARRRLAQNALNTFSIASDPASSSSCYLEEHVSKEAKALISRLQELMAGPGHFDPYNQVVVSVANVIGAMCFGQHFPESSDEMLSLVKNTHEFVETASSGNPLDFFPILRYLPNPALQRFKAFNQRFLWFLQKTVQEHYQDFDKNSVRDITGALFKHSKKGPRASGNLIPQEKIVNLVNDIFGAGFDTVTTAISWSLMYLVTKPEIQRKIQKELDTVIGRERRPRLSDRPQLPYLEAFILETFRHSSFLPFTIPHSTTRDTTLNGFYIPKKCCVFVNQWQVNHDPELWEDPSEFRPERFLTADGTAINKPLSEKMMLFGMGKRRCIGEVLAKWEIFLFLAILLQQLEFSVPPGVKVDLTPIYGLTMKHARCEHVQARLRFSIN

For assay [8], the target named is Cytochrome P450 2D6 (Homo sapiens, UniProt P10635).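 Further: CYP2D6 member of a cytochrome P450 panel assay.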
Assay [9] in a line: Luminescence Cell-Based Dose Response HTS to Identify Activators of Luciferase Translation or Activity in H4 […] Cells. [Related pubchem assays: 1829 (Project Summary), 1814 (Primary HTS)]. The assay is classed as functional.
In assay [10] the test system is H4. Briefly: Luminescence Cell-Based Dose Response HTS to Identify Activators of 5'UTR Stem-Loop Driven Prion Protein mRNA Translation in H4 Neuroglioblastoma Cells. [Related pubchem assays: 1829 (Project Summary), 1814 (Primary HTS)]. In kind it is functional. To be noted: Homo sapiens.
The nature of assay [11]: viability of uninfected HEp-2 cells – cell-based, HTS, cytotoxicity control for RSV inhibitor project, dose response (AID 2410). In kind it is functional. To be noted: human respiratory syncytial virus.

Values joined by “and” are separate entries in the source; they are usually repeats but may differ in a detail not shown here. Equal values may be shown once. Active and inactive are the calls of the source. For most assays here, no stated cut-off is given here; in the data, actives have a measured EC50 and inactives only a lower limit.

In general, AC50 refers to the concentration giving half of the maximal activity seen. One may read the EC50 as the concentration needed to bring the measured effect to its halfway point. As a reminder, the CC50 is the concentration at which the toxic effect on the cells reaches its halfway point.

Cytochrome P450 2C9, sequence (P11712 whole entry): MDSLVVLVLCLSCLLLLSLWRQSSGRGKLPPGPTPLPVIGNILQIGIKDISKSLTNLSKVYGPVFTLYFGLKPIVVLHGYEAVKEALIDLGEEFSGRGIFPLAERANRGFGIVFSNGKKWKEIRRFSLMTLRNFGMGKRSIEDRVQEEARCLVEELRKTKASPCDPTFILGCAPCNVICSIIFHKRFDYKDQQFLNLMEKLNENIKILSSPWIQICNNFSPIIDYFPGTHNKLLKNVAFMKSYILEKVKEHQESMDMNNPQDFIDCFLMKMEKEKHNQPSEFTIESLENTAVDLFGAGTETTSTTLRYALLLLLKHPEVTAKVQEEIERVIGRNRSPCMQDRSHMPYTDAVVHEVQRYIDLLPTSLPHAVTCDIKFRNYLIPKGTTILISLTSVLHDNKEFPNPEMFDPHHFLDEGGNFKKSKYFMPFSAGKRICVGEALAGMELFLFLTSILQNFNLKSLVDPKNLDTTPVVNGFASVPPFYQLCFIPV
Cytochrome P450 3A4, sequence (P08684 whole entry): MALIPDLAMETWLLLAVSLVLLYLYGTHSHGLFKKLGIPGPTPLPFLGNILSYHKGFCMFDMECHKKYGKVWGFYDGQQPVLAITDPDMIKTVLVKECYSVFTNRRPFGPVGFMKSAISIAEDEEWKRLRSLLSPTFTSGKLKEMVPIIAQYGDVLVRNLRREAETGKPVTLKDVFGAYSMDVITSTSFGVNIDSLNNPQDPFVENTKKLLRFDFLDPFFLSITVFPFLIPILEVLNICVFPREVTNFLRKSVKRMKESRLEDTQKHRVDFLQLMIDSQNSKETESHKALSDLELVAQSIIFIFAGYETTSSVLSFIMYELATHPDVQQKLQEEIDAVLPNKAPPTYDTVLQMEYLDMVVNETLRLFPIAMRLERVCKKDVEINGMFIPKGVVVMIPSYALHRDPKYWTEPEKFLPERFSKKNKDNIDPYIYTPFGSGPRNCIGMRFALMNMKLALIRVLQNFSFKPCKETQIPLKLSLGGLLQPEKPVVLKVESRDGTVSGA
Cytochrome P450 2D6, sequence (P10635 whole entry): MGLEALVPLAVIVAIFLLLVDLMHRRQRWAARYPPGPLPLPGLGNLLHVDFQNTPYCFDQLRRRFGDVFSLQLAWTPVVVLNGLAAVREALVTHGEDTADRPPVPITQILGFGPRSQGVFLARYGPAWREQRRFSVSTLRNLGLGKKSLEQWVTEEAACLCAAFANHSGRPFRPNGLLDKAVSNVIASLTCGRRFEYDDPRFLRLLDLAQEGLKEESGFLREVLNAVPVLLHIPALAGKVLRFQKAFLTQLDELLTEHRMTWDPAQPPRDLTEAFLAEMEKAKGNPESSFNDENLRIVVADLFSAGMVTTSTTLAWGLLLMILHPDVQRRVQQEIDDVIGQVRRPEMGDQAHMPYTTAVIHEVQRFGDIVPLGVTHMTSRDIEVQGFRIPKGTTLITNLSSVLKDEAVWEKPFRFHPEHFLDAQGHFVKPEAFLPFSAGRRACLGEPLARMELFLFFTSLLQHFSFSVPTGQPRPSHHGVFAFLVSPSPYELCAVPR

Turning to `Cn1c(=O)c(-c2ccc(F)cc2)nc2cncnc21`, the half-maximal activity concentration (AC50) in assay [1] is 7.94 µM (inconclusive).

Consider `CCCC[C@@H]1C[C@H]1C(NC(=O)c1cccnc1)c1ccc(-c2ccccc2)cc1` (stereo not given in full), for which the AC50 in [1] is 0.794 µM (inconclusive).

As to `CSc1cccc(NC(=S)N2CCC(N(C)C3CCCC3)CC2)c1`, the EC50 in assay [2] was > 195 µM (not active).

For the molecule `FC(F)(F)c1cc(-c2ccccc2)nc(N2CCCCCC2)n1`, the half-maximal effective concentration (EC50) in assay [3] is 5.14 µM (active); in [4], 14.3 µM (active); in assay [5], 4.27 µM (active).

With `Cc1ccc(-n2c(SCc3ccc([N+](=O)[O-])cc3)nc3ccccc3c2=O)cc1`, the AC50 in assay [1] was 11.2 µM (inconclusive); in assay [6], 0.0891 µM (inconclusive).

As for `COc1ccc(N2CCN(C(=O)Cc3csc(NC(=O)Nc4ccccc4OC)n3)CC2)cc1`, the EC50 was > 150 µM (not active) in assay [3], 32.7 µM (active) in assay [4] and > 150 µM (not active) in [5].

In the case of `O=C(Nc1nc(-c2ccccn2)cs1)C12CC3CC(CC(O)(C3)C1)C2`, the EC50 in [3], in assay [4] and in assay [5] was > 150 µM (not active) in each case.

As to `Cc1ccc(C(=O)N(CN2CCCC2=O)c2ccccc2)cc1C`, the AC50 in assay [6] was 0.00562 µM (inconclusive); in assay [7], 5.01 µM (inconclusive).

In the case of `COc1cc(Cn2cnnn2)ccc1O`, the AC50 in assay [6] is 0.178 µM (inconclusive); in assay [7], 39.8 µM (inconclusive).

Consider `Cc1ccc(C2=NN(S(C)(=O)=O)C(c3cccs3)C2)cc1` (stereo not given), for which the values for the half-maximal activity concentration (AC50) in assay [8] and in [7] were 14.1 µM (inconclusive) and 31.6 µM (inconclusive), respectively.

For the molecule `COc1cc(NC(=O)n2ncc3cc(Cl)ccc32)cc(OC)c1`, the concentration giving a half-maximal response (EC50) in assay [9] is 17.4 µM (active); in [10], 12.5 µM (active).

Regarding `COc1ccc(C(=O)N2CCCC(Nc3ccc(C)c(C)c3)C2)cc1F` (stereo not given), the EC50 in [3], in assay [4] and in [5] was > 150 µM (not active) each time.

As to `COC(=O)CCCC1=CC2=C(c3ccccc3)C(=O)C(C)(OC(=O)C3CCCC3)C(=O)C2=CN1c1ccc(OC)cc1` (stereo not given), the EC50 in assay [2] is given as > 195 µM (not active).

Take `OC1/C(=C/c2ccccc2C(F)(F)F)N2CCC1CC2` (stereo not given): the EC50 in assay [2] was > 195 µM (not active).

With `N[C@@H](C(=O)O)c1ccc(P(=O)(O)O)cc1`, the AC50 in [6] was 31.6 µM (inconclusive); in assay [7], 20 µM (inconclusive).

For `CO[C@H]1COC(=O)C/C=C\[C@@H](C)COC(=O)[C@@H](OCc2ccccc2)/C=C\[C@@H]1C`, in assay [1], the AC50 was 3.98 µM (inconclusive).

As to `Cc1ccc(/C=C2/Sc3ccc(C(=O)N4CCN(C)CC4)cc3NC2=O)cc1`, the half-maximal effective concentration (EC50) in assay [3] is > 150 µM (not active); in assay [4] it was 14.2 µM (active); in assay [5], 7.17 µM (active).

For the molecule `Sc1nnc(-c2ccncc2)n1Cc1ccco1`, in assay [2], the 50% effective concentration (EC50) is recorded as > 195 µM (not active).

Take `CCOC(=O)C(=NC(C)(C)C)NNc1cc(Cl)ccc1Cl`: the EC50 in assay [3] is 7.59 µM (active); in [4], 21.1 µM (active); in [5] it was 4.52 µM (active).

As to `FC(F)(F)c1ccccc1-c1nccc(NCc2ccccc2)n1`, the AC50 was 31.6 µM (inconclusive) in [1], 1 µM (inconclusive) in assay [6] and 25.1 µM (inconclusive) in [8].

As to `CC(=O)N1CCC2(CCCN(c3cccc(-c4ccccc4)c3)C2)CC1`, the AC50 was 7.94 µM (inconclusive) in [1] and 39.8 µM (inconclusive) in assay [8].

`O=C(NCCCN1CCC(Cc2ccccc2)CC1)C1CC(=O)N(C2CCCC2)C1` (stereo not given): the EC50 in assay [2] is on record as > 195 µM (not active).

Turning to `CC(=O)C1C(c2ccccc2OC(F)F)NC(=O)NC1(O)C(F)(F)F` (stereo not given), the AC50 is 15.8 µM (inconclusive) in assay [6] and 5.01 µM (inconclusive) in assay [7].

For `COc1ccc(N2CCN(C(=O)c3cccc(Br)c3)CC2)c([N+](=O)[O-])c1`, in [2], the EC50 was > 195 µM (not active).

`COc1ccccc1NC(=O)COC(=O)c1ccc(S(=O)(=O)NCc2ccco2)cc1`: the figures for the AC50 in assay [8] and in [7] were 11.2 µM (inconclusive) and 12.6 µM (inconclusive), respectively.

`COc1cc(C(=O)NC(=S)Nc2cccc(-c3cc4ccccc4oc3=O)c2)cc(OC)c1OC`: the AC50 in [7] was 2.82 µM (inconclusive).

Turning to `COc1cccc(-c2cccc(NC(=O)C3CCN(Cc4ccon4)CC3)c2)c1`, the EC50 in [2] is recorded as > 195 µM (not active).

On to `COc1ccccc1N1CCN(C(c2ccc(N(C)C)cc2)c2nnnn2CCc2ccccc2)CC1` (stereo not given), for which the EC50 in [2] is > 195 µM (not active).

As to `C[C@@H]1CC[C@H]2C(=O)NC[C@@H](O)CN2[C@@H]1c1ccc(Br)cc1`, the AC50 in assay [1] is 3.98 µM (inconclusive); in assay [6], 5.01 µM (inconclusive); in assay [8], 3.16 µM (inconclusive).

As for `O=C(O)[C@H]([C@H]1NCCS1)N1C(=O)c2ccccc2C1=O`, the AC50 in [7] is 5.01 µM (inconclusive).

Turning to `Oc1ccccc1/C=N/NC(=S)NC1CC2CCC1C2` (stereo not given), the EC50 is > 150 µM (not active) in assay [3], 8.53 µM (active) in [4] and 4.8 µM (active) in assay [5].

`CCCOc1ccc(N2C(=O)CC(SC(=N)N/N=C(\C)c3cccs3)C2=O)cc1` (stereo not given): the AC50 in [8] and in [7] was 15.8 µM (inconclusive) throughout.

On to `CC(C)c1c(C(=O)N/N=C/c2cccc(OCc3ccc(F)cc3)c2)nnn1-c1nonc1N`, for which the 50% effective concentration (EC50) in [3] is 2.1 µM (active); in assay [4], 23.1 µM (active); in assay [5] it was 4.9 µM (active).

As for `COc1ccc(C/C(C)=N/NC(=S)Nc2ccccc2F)cc1`, the EC50 in assay [2] is 96.9 µM (active).

For `S=C(N/N=C/c1ccc(Br)cc1)N1CCCCC1`, the EC50 in assay [9] is 0.174 µM (active); in assay [10], 96.7 µM (active).

For `Cc1ccc([N+](=O)[O-])cc1/N=C(/c1cccc([N+](=O)[O-])c1)N1CCOCC1`, the AC50 in [1] was 20 µM (inconclusive); in assay [6] it was 25.1 µM (inconclusive).

For the molecule `CC1=NN=C(c2ccc(N)cc2)c2cc3c(cc2C1)OCO3` [GYKI-52466], the half-maximal activity concentration (AC50) was 25.1 µM (inconclusive) and 31.6 µM (inconclusive) in assay [8]; 31.6 µM (inconclusive) in [7].

As to `CCN(CC)CCOC(=O)[C@@H](Cc1cccc2ccccc12)C[C@@H]1CCCO1` [NAFTIDROFURYL], the AC50 in assay [8] was 5.01 µM (inconclusive); in assay [7], 10 µM (inconclusive).

For the molecule `C[C@H]1[C@H](C)CC[C@]2(C(=O)O)CC[C@]3(C)C(=CC[C@@H]4[C@@]5(C)CC[C@H](O)C(C)(C)[C@@H]5CC[C@]43C)[C@H]12` [URSOLIC ACID], in [11], the CC50 was 28.4 µM (active). Also, the figures for the EC50 in assay [4] and in [5] were 0.88 µM (active) and 0.949 µM (active), respectively.
